The values that follow come from DBAASP.

Some test systems named below: Staphylococcus aureus; Escherichia coli 55B5; Escherichia coli UB1005; Salmonella typhimurium; Pseudomonas aeruginosa; Aspergillus flavus; Saccharomyces cerevisiae; Bacillus megaterium; Shigella dysenteriae; Escherichia coli; Staphylococcus simulans; Escherichia coli D21; Micrococcus luteus; Spiroplasma citri R8A2.
Test in all cases: ≥ marks a high value that may be exact or a test limit, other limits are often not marked, values filed in µg/mL are converted to µM
Assay [1] concerns Candida albicans ATCC 90028.
Assay [2] deals with Escherichia coli ATCC 25922.
Assay [3] relates to Candida parapsilosis ATCC 22019.
In assay [4] the test system is Pseudomonas aeruginosa ATCC 27853.
In assay [5] the test system is Escherichia coli ATCC 35218.
The test system of assay [6] is Enterococcus faecalis ATCC 29212.
The test system of assay [7] is Staphylococcus aureus ATCC 25923.
For assay [8], the system named is Escherichia coli ATCC 25629.
The subject of assay [9] is Shigella dysenteriae ATCC 2932.
In assay [10] the test system is Candida albicans ATCC 3007.
In assay [11] the test system is Staphylococcus aureus ATCC 2576.
Assay [12] relates to Acinetobacter baumannii ATCC 19606.
The test system of assay [13] is Staphylococcus epidermidis LT1324.
For assay [14], the system named is Staphylococcus aureus II ATCC 6538P.
In assay [15] the test system is Spiroplasma floricola BNR 1.
Assay [16] concerns Acholeplasma laidlawii A-EF22.
Assay [17] has as its system Spiroplasma melliferum BC3.
For assay [18], the system named is Mycoplasma mycoides ssp. mycoides SC KH3J.

Converted amounts (≈) assume the structure as drawn.

Broadly, the MIC is the lowest concentration found to suppress growth. Low readings indicate a more susceptible organism, high ones a less susceptible organism.

For `CC[C@H](C)[C@H](NC(=O)[C@H](C)N)C(=O)N[C@@H](Cc1cnc[nH]1)C(=O)N[C@@H](CCCCN)C(=O)N[C@@H](CC(C)C)C(=O)N[C@@H](C)C(=O)N[C@@H](Cc1cnc[nH]1)C(=O)N[C@@H](CCCCN)C(=O)N[C@@H](CC(C)C)C(=O)N[C@@H](CC(C)C)C(=O)N[C@@H](CCCCN)C(=O)N[C@@H](CCCCN)C(=O)N[C@H](C(=O)N[C@@H](CC(C)C)C(=O)N[C@@H](CCCN=C(N)N)C(=O)N[C@@H](C)C(=O)N[C@H](C(=O)N[C@@H](CCCCN)C(=O)N[C@@H](CCCCN)C(=O)N[C@@H](CC(C)C)C(=O)N[C@@H](C)C(=O)N[C@@H](CC(N)=O)C(=O)O)C(C)C)[C@@H](C)O` [AIHKLAHKLLKKTLRAVKKLAN], the MIC came out at 30 µM (≈ 74.9 µg/mL) in the assay with Staphylococcus aureus; 5.2 µM (≈ 13 µg/mL) in the assay with Escherichia coli 55B5; 5.5 µM (≈ 13.7 µg/mL) in the assay on Escherichia coli UB1005; 8.5 µM (≈ 21.2 µg/mL) with Salmonella typhimurium; 10.5 µM (≈ 26.2 µg/mL) in the assay on Pseudomonas aeruginosa.

As for `CC[C@H](C)[C@H](NC(=O)[C@@H]1CCCN1C(=O)[C@H](CC(C)C)NC(=O)[C@@H](N)Cc1ccccc1)C(=O)N[C@H](C(=O)N[C@H](C(=O)N[C@@H](CC(N)=O)C(=O)N[C@@H](CC(C)C)C(=O)N[C@@H](CC(C)C)C(=O)N[C@@H](CO)C(=O)NCC(=O)N[C@@H](CC(C)C)C(=O)N[C@@H](CC(C)C)C(=O)O)[C@@H](C)O)C(C)C` [FLPIVTNLLSGLL], the minimal inhibitory concentration (MIC) in the assay with Aspergillus flavus is no less than 58 µM; against Saccharomyces cerevisiae, no less than 116 µM; in assay [1], no less than 116 µM; in assay [2], 231 µM (≈ 323 µg/mL); in [3], no less than 116 µM; in assay [4], greater than 231 µM. For the same compound, the MIC in assay [5] was no less than 116 µM; in assay [6], greater than 116 µM; in assay [7] it was 58 µM (≈ 81.2 µg/mL); against Bacillus megaterium, no less than 46 µM.

Turning to `CC[C@H](C)[C@H](NC(=O)CN)C(=O)N[C@@H](CC(C)C)C(=O)N[C@@H](CCCCN)C(=O)N[C@@H](CCCCN)C(=O)N[C@@H](Cc1ccccc1)C(=O)N[C@@H](CCSC)C(=O)N[C@@H](CC(C)C)C(=O)N[C@@H](Cc1cnc[nH]1)C(=O)N[C@@H](CCCN=C(N)N)C(=O)NCC(=O)N[C@H](C(=O)N[C@@H](CCCCN)C(=O)N[C@H](C(=O)N[C@@H](Cc1ccc(O)cc1)C(=O)N[C@@H](CCCCN)C(=O)N[C@@H](CCSC)C(=O)N[C@@H](CCCN=C(N)N)C(=O)N[C@H](C(=O)N[C@@H](CC(C)C)C(=O)N[C@@H](CO)C(=O)N[C@@H](CCCCN)C(=O)N[C@@H](CCCN=C(N)N)C(=O)N[C@@H](CO)C(=O)N[C@@H](Cc1cnc[nH]1)C(=O)O)[C@@H](C)O)C(C)C)[C@@H](C)O` [GILKKFMLHRGTKVYKMRTLSKRSH], the MIC against Staphylococcus aureus stood at 0.332 µM (≈ 1 µg/mL); in assay [8], 1.66 µM (≈ 5 µg/mL); in assay [9] it was 0.829 µM (≈ 2.5 µg/mL); against Shigella dysenteriae it was 1.66 µM (≈ 5 µg/mL); in assay [10], 2.49 µM (≈ 7.5 µg/mL); in the assay on Escherichia coli, 1.66 µM (≈ 5 µg/mL). Besides, the MIC in assay [11] came out at 0.166 µM (≈ 0.5 µg/mL).

Regarding `CC(C)C[C@H](NC(=O)[C@H](CC(C)C)NC(=O)[C@H](CCCCN)NC(=O)[C@H](CC(C)C)NC(=O)[C@H](CC(C)C)NC(=O)[C@H](CCCCN)NC(=O)[C@H](CC(C)C)NC(=O)[C@H](CC(C)C)NC(=O)[C@H](CCCCN)NC(=O)[C@H](CC(C)C)NC(=O)[C@H](CC(C)C)NC(=O)[C@H](CCCCN)NC(=O)[C@H](CC(C)C)NC(=O)[C@@H](N)CCCCN)C(=O)N[C@@H](CCCCN)C(N)=O` [KLKLLKLLKLLKLLK], the MIC in assay [12] was found to be 2 µM (≈ 3.61 µg/mL); in assay [13], 1.5 µM (≈ 2.71 µg/mL); against Staphylococcus simulans, 1.5 µM (≈ 2.71 µg/mL); in the assay with Escherichia coli D21, 3 µM (≈ 5.41 µg/mL); against Micrococcus luteus, 2 µM (≈ 3.61 µg/mL); in assay [2] it was 3 µM (≈ 5.41 µg/mL). In addition, the MIC in assay [14] and in [4] was 6 µM (≈ 10.8 µg/mL) in each case.

Take `CC(C)C[C@H](NC(=O)[C@H](CC(C)C)NC(=O)[C@H](CCCCN)NC(=O)[C@H](CC(C)C)NC(=O)[C@H](CC(C)C)NC(=O)[C@H](CC(C)C)NC(=O)[C@H](CCCCN)NC(=O)[C@H](CC(C)C)NC(=O)[C@H](CC(C)C)NC(=O)[C@H](CC(C)C)NC(=O)[C@H](CCCCN)NC(=O)[C@H](CC(C)C)NC(=O)[C@H](CC(C)C)NC(=O)[C@@H](N)CCCCN)C(=O)N[C@@H](CCCCN)C(=O)O` [KLLKLLLKLLLKLLK]: the MIC against Spiroplasma citri R8A2 was 6.25 µM (≈ 11.2 µg/mL); in [15], 6.25 µM (≈ 11.2 µg/mL); in [16], 1.56 µM (≈ 2.79 µg/mL); in [17], 6.25 µM (≈ 11.2 µg/mL); in assay [18], 6.25 µM (≈ 11.2 µg/mL).
